Test results as given in ChEMBL document CHEMBL5291721, “A preclinical secondary pharmacology resource illuminates target-adverse drug reaction associations of marketed drugs” (Nat Commun, 2023).

How the values were obtained:
[1] = biological target: T1, Alpha-1A adrenergic receptor (Homo sapiens, UniProt P35348); assay type: functional, cell-based
T1 sequence (P35348 whole entry): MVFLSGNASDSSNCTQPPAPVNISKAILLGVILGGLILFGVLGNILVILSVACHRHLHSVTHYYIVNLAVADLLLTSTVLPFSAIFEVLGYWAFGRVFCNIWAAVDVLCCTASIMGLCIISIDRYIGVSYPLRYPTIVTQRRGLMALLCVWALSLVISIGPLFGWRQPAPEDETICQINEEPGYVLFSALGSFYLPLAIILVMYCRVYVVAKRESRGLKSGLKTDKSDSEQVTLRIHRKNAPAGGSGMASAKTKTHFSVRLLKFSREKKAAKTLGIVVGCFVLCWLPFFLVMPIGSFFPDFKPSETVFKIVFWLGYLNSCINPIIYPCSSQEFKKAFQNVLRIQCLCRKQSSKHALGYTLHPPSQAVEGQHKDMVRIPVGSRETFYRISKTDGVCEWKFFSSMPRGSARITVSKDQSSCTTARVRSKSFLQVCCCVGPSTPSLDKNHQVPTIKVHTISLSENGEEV

[2] = biological target: T2, Alpha-2A adrenergic receptor (Homo sapiens, UniProt P08913)
T2 sequence (P08913 whole entry): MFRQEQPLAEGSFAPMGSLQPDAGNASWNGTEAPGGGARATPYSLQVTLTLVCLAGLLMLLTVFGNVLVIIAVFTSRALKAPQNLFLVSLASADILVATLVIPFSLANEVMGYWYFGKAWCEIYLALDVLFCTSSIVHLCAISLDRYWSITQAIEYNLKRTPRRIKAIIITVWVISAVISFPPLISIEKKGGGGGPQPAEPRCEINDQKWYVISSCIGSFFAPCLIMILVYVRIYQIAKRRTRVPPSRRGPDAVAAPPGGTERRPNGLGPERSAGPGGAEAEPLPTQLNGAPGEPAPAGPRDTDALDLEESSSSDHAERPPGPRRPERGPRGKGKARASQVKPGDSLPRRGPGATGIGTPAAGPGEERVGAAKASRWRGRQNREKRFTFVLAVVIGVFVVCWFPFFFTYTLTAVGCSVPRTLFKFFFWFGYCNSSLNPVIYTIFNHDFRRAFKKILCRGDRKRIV

D(1A) dopamine receptor = D(1A) dopamine receptor (Homo sapiens, UniProt P21728)
D(3) dopamine receptor = D(3) dopamine receptor (Homo sapiens, UniProt P35462)
Estrogen receptor = biological target: T3, Estrogen receptor (Homo sapiens, UniProt P03372)
T3 sequence (P03372 whole entry): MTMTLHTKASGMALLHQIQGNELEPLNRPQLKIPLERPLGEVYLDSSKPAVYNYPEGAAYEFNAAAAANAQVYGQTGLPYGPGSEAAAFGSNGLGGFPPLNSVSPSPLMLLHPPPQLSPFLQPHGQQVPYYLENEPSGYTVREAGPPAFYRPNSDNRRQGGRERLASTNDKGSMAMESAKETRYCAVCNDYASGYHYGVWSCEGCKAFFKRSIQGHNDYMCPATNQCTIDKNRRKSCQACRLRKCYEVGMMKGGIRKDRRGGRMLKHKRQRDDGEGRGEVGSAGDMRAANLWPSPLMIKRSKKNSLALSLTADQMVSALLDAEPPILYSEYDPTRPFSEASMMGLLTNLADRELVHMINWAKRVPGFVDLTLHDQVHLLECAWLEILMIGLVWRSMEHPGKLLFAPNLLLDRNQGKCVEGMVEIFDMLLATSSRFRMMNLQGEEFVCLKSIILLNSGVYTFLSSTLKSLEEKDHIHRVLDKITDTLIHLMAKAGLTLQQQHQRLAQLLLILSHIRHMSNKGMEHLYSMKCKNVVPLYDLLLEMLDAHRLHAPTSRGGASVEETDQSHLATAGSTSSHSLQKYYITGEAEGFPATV

[3] = biological target: 5-hydroxytryptamine receptor 2B (Homo sapiens, UniProt P41595); assay type: functional, cell-based
[4] = biological target: T4, Amine oxidase [flavin-containing] A (Homo sapiens, UniProt P21397); assay type: functional
T4 sequence (P21397 whole entry): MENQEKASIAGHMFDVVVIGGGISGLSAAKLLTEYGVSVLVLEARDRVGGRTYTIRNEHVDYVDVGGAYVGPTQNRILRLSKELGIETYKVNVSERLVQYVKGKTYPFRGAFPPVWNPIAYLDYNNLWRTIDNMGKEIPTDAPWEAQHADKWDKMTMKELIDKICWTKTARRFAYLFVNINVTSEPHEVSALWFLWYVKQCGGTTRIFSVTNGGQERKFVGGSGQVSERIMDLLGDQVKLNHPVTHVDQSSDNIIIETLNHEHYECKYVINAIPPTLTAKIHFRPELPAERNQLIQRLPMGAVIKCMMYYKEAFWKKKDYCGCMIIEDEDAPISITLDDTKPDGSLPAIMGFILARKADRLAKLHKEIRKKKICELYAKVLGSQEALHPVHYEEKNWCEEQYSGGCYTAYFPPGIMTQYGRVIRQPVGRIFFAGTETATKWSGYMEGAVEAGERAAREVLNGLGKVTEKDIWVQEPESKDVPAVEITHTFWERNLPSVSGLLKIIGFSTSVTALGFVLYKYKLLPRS

[5] = biological target: 3',5'-cyclic-AMP phosphodiesterase 4A (Homo sapiens, UniProt P27815); assay type: functional
[6] = biological target: Sodium-dependent noradrenaline transporter (Homo sapiens, UniProt P23975)
Thromboxane A2 receptor [7] = biological target: T5, Thromboxane A2 receptor (Homo sapiens, UniProt P21731); assay type: functional, cell-based
T5 sequence (P21731 whole entry): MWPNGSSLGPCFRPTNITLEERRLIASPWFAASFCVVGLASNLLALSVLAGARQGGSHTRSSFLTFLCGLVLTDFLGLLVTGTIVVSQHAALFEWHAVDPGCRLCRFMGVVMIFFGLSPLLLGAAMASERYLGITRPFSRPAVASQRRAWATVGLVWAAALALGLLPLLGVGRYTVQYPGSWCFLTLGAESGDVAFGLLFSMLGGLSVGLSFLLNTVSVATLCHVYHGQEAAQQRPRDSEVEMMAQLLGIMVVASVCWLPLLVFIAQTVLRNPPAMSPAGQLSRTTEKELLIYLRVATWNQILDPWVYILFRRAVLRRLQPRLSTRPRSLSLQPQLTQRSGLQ

Thromboxane A2 receptor [8] = biological target: T5, Thromboxane A2 receptor; assay type: functional, cell-based; remark: listed apart in the source
Also: assay procedure not described here.

Chain of D(1A) dopamine receptor (P21728 whole entry): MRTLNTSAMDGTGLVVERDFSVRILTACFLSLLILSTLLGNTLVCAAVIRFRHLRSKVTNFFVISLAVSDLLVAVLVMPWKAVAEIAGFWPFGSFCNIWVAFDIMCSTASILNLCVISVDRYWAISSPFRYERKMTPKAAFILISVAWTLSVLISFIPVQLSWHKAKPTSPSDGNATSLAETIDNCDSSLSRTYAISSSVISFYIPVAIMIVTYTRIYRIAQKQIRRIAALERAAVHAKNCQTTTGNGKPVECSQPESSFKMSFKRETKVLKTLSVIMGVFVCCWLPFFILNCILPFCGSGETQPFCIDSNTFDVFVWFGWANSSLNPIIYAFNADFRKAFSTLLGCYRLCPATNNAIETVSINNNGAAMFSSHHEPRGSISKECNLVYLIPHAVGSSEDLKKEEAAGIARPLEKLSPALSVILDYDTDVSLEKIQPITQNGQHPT
Chain of Sodium-dependent noradrenaline transporter (P23975 whole entry): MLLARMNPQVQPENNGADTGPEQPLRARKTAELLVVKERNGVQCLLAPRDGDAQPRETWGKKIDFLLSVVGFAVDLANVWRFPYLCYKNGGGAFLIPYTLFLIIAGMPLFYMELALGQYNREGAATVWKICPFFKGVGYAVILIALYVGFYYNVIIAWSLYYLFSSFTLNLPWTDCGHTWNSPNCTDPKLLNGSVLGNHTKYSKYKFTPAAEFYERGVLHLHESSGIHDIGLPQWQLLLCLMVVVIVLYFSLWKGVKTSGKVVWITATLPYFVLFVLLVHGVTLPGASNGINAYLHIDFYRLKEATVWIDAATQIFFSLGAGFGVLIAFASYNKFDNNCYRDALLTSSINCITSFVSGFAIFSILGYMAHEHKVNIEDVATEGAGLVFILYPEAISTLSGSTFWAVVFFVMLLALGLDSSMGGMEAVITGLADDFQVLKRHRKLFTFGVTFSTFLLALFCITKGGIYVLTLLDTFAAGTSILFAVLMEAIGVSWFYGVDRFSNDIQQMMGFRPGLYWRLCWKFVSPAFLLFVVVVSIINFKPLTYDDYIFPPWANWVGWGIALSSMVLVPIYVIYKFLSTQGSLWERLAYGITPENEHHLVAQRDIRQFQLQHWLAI
Chain of 3',5'-cyclic-AMP phosphodiesterase 4A (P27815 whole entry): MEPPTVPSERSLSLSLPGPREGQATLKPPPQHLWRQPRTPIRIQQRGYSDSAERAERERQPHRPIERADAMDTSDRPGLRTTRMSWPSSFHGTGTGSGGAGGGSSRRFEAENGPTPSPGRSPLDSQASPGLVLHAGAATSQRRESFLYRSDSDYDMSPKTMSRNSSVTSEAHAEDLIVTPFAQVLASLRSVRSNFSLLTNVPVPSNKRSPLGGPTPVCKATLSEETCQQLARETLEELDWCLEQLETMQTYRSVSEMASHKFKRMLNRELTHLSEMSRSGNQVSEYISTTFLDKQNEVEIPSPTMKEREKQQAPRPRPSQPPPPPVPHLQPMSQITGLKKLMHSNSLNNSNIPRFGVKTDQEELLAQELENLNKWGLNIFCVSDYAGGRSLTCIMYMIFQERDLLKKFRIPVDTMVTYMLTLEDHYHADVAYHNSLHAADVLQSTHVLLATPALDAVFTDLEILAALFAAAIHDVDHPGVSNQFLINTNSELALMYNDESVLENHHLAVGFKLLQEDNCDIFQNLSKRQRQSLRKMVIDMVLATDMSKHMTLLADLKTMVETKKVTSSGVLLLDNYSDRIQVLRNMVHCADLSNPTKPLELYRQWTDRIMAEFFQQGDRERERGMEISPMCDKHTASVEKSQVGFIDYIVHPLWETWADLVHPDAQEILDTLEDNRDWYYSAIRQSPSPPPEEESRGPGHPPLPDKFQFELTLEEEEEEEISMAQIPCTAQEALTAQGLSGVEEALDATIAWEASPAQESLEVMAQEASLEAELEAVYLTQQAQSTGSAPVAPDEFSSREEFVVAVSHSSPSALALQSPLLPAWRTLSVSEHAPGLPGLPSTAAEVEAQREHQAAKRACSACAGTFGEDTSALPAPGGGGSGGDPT
Chain of D(3) dopamine receptor (P35462 whole entry): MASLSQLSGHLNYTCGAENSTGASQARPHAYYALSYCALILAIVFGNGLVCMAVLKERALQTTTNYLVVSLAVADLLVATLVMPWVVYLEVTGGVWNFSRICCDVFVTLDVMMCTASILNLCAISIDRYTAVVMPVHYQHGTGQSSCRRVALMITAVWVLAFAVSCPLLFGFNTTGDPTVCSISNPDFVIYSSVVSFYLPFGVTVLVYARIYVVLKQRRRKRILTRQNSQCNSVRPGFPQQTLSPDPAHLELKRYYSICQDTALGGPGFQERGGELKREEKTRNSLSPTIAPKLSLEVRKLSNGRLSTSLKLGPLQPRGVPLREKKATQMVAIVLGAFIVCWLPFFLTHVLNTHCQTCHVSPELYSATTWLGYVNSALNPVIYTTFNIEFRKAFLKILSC
Chain of 5-hydroxytryptamine receptor 2B (P41595 whole entry): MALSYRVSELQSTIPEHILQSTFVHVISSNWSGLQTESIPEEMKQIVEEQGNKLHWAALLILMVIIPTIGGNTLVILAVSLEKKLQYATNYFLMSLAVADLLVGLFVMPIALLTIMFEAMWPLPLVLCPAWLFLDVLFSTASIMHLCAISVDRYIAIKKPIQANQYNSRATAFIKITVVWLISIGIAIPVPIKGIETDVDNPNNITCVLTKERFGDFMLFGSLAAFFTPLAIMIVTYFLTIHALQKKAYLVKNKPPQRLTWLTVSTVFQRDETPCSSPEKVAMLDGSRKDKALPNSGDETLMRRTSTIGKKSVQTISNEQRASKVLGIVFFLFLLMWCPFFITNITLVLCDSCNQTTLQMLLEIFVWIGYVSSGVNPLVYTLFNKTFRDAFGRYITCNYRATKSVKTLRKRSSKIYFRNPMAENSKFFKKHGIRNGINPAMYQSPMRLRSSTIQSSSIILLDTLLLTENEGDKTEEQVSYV

Row | SMILES | AC50 [1] | AC50 [2] | AC50 (D(1A) dopamine receptor) | AC50 (D(3) dopamine receptor) | AC50 (Estrogen receptor) | AC50 [3] | AC50 [4] | AC50 [5] | AC50 [6] | AC50 (Thromboxane A2 receptor [7]) | AC50 (Thromboxane A2 receptor [8])
1 | O=C(OOC(=O)c1ccccc1)c1ccccc1 [BENZOYL PEROXIDE] | > 30 µM | > 30 µM | > 30 µM | > 30 µM | > 30 µM | > 30 µM | > 30 µM | > 30 µM | > 30 µM | > 30 µM | > 30 µM
2 | CNC(=O)c1cnn(-c2nc(N)c3ncn([C@@H]4O[C@H](CO)[C@@H](O)[C@H]4O)c3n2)c1 [REGADENOSON ANHYDROUS] | > 30 µM | > 30 µM | > 30 µM | > 30 µM | > 30 µM | > 30 µM | > 30 µM | > 30 µM | > 30 µM | > 30 µM | > 30 µM
3 | CC(=O)OCC(=O)[C@@]1(O)CC[C@H]2[C@@H]3C[C@H](C)C4=CC(=O)C=C[C@]4(C)[C@H]3[C@@H](O)C[C@@]21C [METHYLPREDNISOLONE ACETATE] | > 30 µM | > 30 µM | > 30 µM | > 30 µM | > 30 µM | > 30 µM | > 30 µM | > 30 µM | > 30 µM | > 30 µM | > 30 µM
4 | CC1(C)C[C@@H]1C(=O)N/C(=C\CCCCSC[C@H](N)C(=O)O)C(=O)O [CILASTATIN] | > 30 µM | > 30 µM | > 30 µM | > 30 µM | – | > 30 µM | > 30 µM | > 30 µM | > 30 µM | > 30 µM | > 30 µM
5 | COc1ccc(C(=O)c2ccccc2)c(O)c1 [OXYBENZONE] | > 10 µM | > 30 µM | > 30 µM | > 30 µM | > 30 µM | > 30 µM | > 30 µM | 18.1 µM | 11.6 µM | > 30 µM | > 10 µM
6 | O=NN(CCCl)C(=O)NCCCl [CARMUSTINE] | > 30 µM | > 30 µM | > 30 µM | > 30 µM | – | > 30 µM | > 30 µM | – | > 30 µM | – | –
7 | CSCC[C@H](N)C(=O)O [METHIONINE] | – | > 30 µM | > 30 µM | > 30 µM | > 30 µM | > 30 µM | > 30 µM | > 30 µM | > 30 µM | > 30 µM | > 30 µM
8 | CC(=O)Nc1ccc(/C=N/NC(N)=S)cc1 [AMITHIOZONE] | – | > 30 µM | > 30 µM | > 30 µM | – | > 30 µM | > 10 µM | > 30 µM | > 30 µM | > 30 µM | > 30 µM
9 | CC(=O)O[C@]1(C(C)=O)CC[C@H]2[C@@H]3CCC4=CC(=O)CCC4=C3[C@@H](c3ccc(N(C)C)cc3)C[C@@]21C [ULIPRISTAL ACETATE] | > 30 µM | > 30 µM | > 30 µM | > 30 µM | 9.29 µM | > 30 µM | > 30 µM | > 30 µM | > 30 µM | > 30 µM | > 30 µM
10 | Cc1ccc(O)c([C@H](CCN(C(C)C)C(C)C)c2ccccc2)c1 [TOLTERODINE] | 24.7 µM | > 30 µM | > 30 µM | > 30 µM | – | > 30 µM | > 30 µM | – | > 30 µM | – | –
11 | COc1c(OCCCN2CCOCC2)ccc2c1N=C(NC(=O)c1cnc(N)nc1)N1CCN=C21 [COPANLISIB] | > 30 µM | > 30 µM | > 30 µM | > 30 µM | > 30 µM | > 30 µM | > 30 µM | > 30 µM | > 30 µM | > 30 µM | > 30 µM
12 | OC(CN1CCCCC1)c1cc(-c2ccccc2)on1 (stereo unspecified) [PERISOXAL] | – | > 30 µM | 3.82 µM | 15.2 µM | > 30 µM | > 30 µM | > 30 µM | > 30 µM | 21.9 µM | > 30 µM | > 30 µM
13 | N=C(N)NC(=O)c1nc(Cl)c(N)nc1N [AMILORIDE] | > 30 µM | > 30 µM | > 30 µM | > 30 µM | > 30 µM | > 30 µM | 5.24 µM | > 30 µM | > 30 µM | > 30 µM | > 30 µM
14 | CC1(C)CCC(C)(C)c2cc(NC(=O)c3ccc(C(=O)O)cc3)ccc21 [TAMIBAROTENE] | > 10 µM | > 30 µM | > 30 µM | > 30 µM | – | > 30 µM | > 30 µM | > 30 µM | > 30 µM | 28.7 µM | 9.94 µM
15 | CC(C)(C)NCC(O)COc1ccccc1C#N (stereo unspecified) [BUNITROLOL] | > 30 µM | 27.1 µM | > 30 µM | > 30 µM | > 30 µM | > 30 µM | 10.4 µM | > 30 µM | > 30 µM | > 30 µM | > 30 µM
16 | C[C@@H](O)[C@H]1C(=O)N2C(C(=O)O)=C(S[C@@H]3CN[C@H](C(=O)Nc4cccc(C(=O)O)c4)C3)[C@H](C)[C@H]12 | – | > 30 µM | > 30 µM | > 30 µM | 15.9 µM | > 30 µM | > 30 µM | 1.62 µM | > 30 µM | > 30 µM | > 30 µM
17 | CC(=O)OC1CN2CCC1CC2 (stereo unspecified) [ACECLIDINE] | – | > 30 µM | > 30 µM | > 30 µM | > 30 µM | > 30 µM | > 30 µM | > 30 µM | > 30 µM | > 30 µM | > 30 µM
